In patent publication US10584115B2, “Substituted pyridine and pyrazine BMI-1 inhibitors” (PTC Therapeutics, Inc., priority 2013, dated 2020) one finds EC50 data, which are given here for 36 compounds.

What is called EC50 is the concentration giving half of the maximal effect.

One test deals with Bmi-1 protein. Description: Sandwich ELISA Assay (Bmi-1 protein level in HT-1080 cells after compound treatment). The test is classed as cell-based. The conditions noted are these: Table 1, Bmi-1 sandwich ELISA, read-out: ELISA EC50 value for Bmi-1 protein. Put shortly: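 Sandwich ELISA quantified Bmi-1 protein against recombinant standard (125–8000 pg/mL), with lysates captured overnight at 4 °C and signal by HRP/TMB at 450 nm (570 nm reference). Lysates came from HT-1080 cells incubated 40–48 h with test compounds in 0.5% DMSO.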
For orientation: In an ELISA, binding on a coated surface is turned into a signal by an enzyme label.
On to `CNc1ccc2nc(C)n(-c3cncc(Nc4ccc(C(F)(F)F)cc4)n3)c2c1` [compound 274, N,2-dimethyl-1-(6-{[4-(trifluoromethyl)phenyl]amino}pyrazin-2-yl)-1H-benzimidazol-6-amine], for which the EC50 lay in the range of 10 to 100 nM.
Still for that read-out and setting: next, `FC(F)(F)Oc1ccc(Nc2cccc(-c3c(C(F)(F)F)nc4ccccn34)n2)cc1` [Cpd 16, N-[4-(trifluoromethoxy)phenyl]-6-[2-(trifluoromethyl)imidazo[1,2-a]pyridin-3-yl]pyridin-2-amine]: 10 to 100 nM; `FC(F)C(F)(F)Oc1ccc(Nc2cncc(-c3c(C(F)(F)F)nc4ccccn34)n2)cc1` [compound 322, N-[4-(1,1,2,2-tetrafluoroethoxy)phenyl]-6-[2-(trifluoromethyl)imidazo[1,2-a]pyridin-3-yl]pyrazin-2-amine]: 100 to 3000 nM; `COC(=O)c1ccc(Nc2cccc(-n3c(C)nc4ccc(F)cc43)n2)cc1` [Cpd 610, methyl 4-{[6-(6-fluoro-2-methyl-1H-benzimidazol-1-yl)pyridin-2-yl]amino}benzoate]: 10 to 100 nM.
The same measure, in the same setting: next, `CCc1nn2ccccc2c1-c1cncc(Nc2ccc(OC(F)(F)F)cc2)n1` [compound 523, 6-(2-ethylpyrazolo[1,5-a]pyridin-3-yl)-N-[4-(trifluoromethoxy)phenyl]pyrazin-2-amine]: 10 to 100 nM; `COc1ccc(Nc2cncc(-n3c(C(F)(F)F)nc4ccccc43)n2)cc1` [compound 43, N-(4-methoxyphenyl)-6-[2-(trifluoromethyl)-1H-benzimidazol-1-yl]pyrazin-2-amine]: 1 to 10 nM; `Cc1ccc(Nc2cncc(-c3c(C(F)(F)F)nn4ccccc34)n2)cc1` [compound 75, N-(4-methylphenyl)-6-[2-(trifluoromethyl)pyrazolo[1,5-a]pyridin-3-yl]pyrazin-2-amine]: 1 to 10 nM.
The same measure, in the same setting: the same measure for `Cc1nc2ccc(F)cc2n1-c1cc(C#N)cc(Nc2ccc(OC(F)(F)F)cc2)n1` [compound 588, 2-(6-fluoro-2-methyl-1H-benzimidazol-1-yl)-6-{[4-(trifluoromethoxy)phenyl]amino}pyridine-4-carbonitrile]: 10 to 100 nM.
Turning to `Cc1nc2cc(F)c(F)cc2n1-c1cncc(Nc2ccc(C=O)cc2)n1` [compound 502, 4-{[6-(5,6-difluoro-2-methyl-1H-benzimidazol-1-yl)pyrazin-2-yl]amino}benzaldehyde], the EC50 is 10 to 100 nM.
Still for that read-out and setting: the same measure for `COc1ccc(Nc2cccc(-c3c(C(F)(F)F)nc4ccccn34)n2)cc1` [Cpd 4, N-(4-methoxyphenyl)-6-[2-(trifluoromethyl)imidazo[1,2-a]pyridin-3-yl]pyridin-2-amine]: 1 to 10 nM; for `FC(F)(F)c1ccc(Nc2cncc(-c3c(C(F)(F)F)nc4ccccn34)n2)cn1` [Cpd 70, 6-[2-(trifluoromethyl)imidazo[1,2-a]pyridin-3-yl]-N-[6-(trifluoromethyl)pyridin-3-yl]pyrazin-2-amine]: 10 to 100 nM; for `CCCc1ccc(Nc2cncc(-n3c(C)nc4ccccc43)n2)cc1` [compound 663, 6-(2-methyl-1H-benzimidazol-1-yl)-N-(4-propylphenyl)pyrazin-2-amine]: 10 to 100 nM.
Regarding `COc1ccc2nc(C)n(-c3cncc(Nc4ccc(C(F)(F)F)cc4)n3)c2c1` [compound 317, 6-(6-methoxy-2-methyl-1H-benzimidazol-1-yl)-N-[4-(trifluoromethyl)phenyl]pyrazin-2-amine], the EC50 was 10 to 100 nM.
Still for that read-out and setting: next, `FC(F)(F)Sc1ccc(Nc2cncc(-c3c(C(F)(F)F)nc4ccccn34)n2)cc1` [compound 211, 6-[2-(trifluoromethyl)imidazo[1,2-a]pyridin-3-yl]-N-{4-[(trifluoromethyl)sulfanyl]phenyl}pyrazin-2-amine]: 100 to 3000 nM.
Same read-out and setting: next, `FC(F)(F)c1ccc(Nc2cccc(-c3c(C(F)(F)F)nc4cnccn34)n2)cc1` [compound 194, 6-[2-(trifluoromethyl)imidazo[1,2-a]pyrazin-3-yl]-N-[4-(trifluoromethyl)phenyl]pyridin-2-amine]: 10 to 100 nM; `FC(F)(F)c1nc2ccccn2c1-c1cccc(Nc2ccc(Cl)cc2)n1` [Cpd 17, N-(4-chlorophenyl)-6-[2-(trifluoromethyl)imidazo[1,2-a]pyridin-3-yl]pyridin-2-amine]: 1 to 10 nM.
The same measure, in the same setting: the same measure for `FC(F)(F)COc1ccc(Nc2cncc(-c3c(C(F)(F)F)nc4ccccn34)n2)cc1` [compound 321, N-[4-(2,2,2-trifluoroethoxy)phenyl]-6-[2-(trifluoromethyl)imidazo[1,2-a]pyridin-3-yl]pyrazin-2-amine]: 10 to 100 nM; for `Cc1cc(Nc2cncc(-c3c(C(F)(F)F)nc4ccccn34)n2)on1` [compound 97, N-(3-methyl-1,2-oxazol-5-yl)-6-[2-(trifluoromethyl)imidazo[1,2-a]pyridin-3-yl]pyrazin-2-amine]: 100 to 3000 nM.
Consider `Ic1ccc(Nc2cncc(-n3cnc4ccccc43)n2)cc1` [compound 2, 6-(1H-benzimidazol-1-yl)-N-(4-iodophenyl)pyrazin-2-amine], for which the EC50 lay within 10 to 100 nM.
Still for that read-out and setting: the same measure for `CCCc1nc2ccccc2n1-c1cncc(Nc2ccc(C(F)(F)F)cc2)n1` [compound 53, 6-(2-propyl-1H-benzimidazol-1-yl)-N-[4-(trifluoromethyl)phenyl]pyrazin-2-amine]: 10 to 100 nM; for `N#Cc1cc(Nc2ccc(OC(F)F)cc2)nc(-c2c(C3CC3)nc3ccc(F)cn23)c1` [compound 348, 2-(2-cyclopropyl-6-fluoroimidazo[1,2-a]pyridin-3-yl)-6-{[4-(difluoromethoxy)phenyl]amino}pyridine-4-carbonitrile]: 1 to 10 nM; for `COc1ccc(Nc2cncc(-c3c(C(F)(F)F)nn4ccccc34)n2)cc1` [compound 74, N-(4-methoxyphenyl)-6-[2-(trifluoromethyl)pyrazolo[1,5-a]pyridin-3-yl]pyrazin-2-amine]: under 1 nM.
The same measure, in the same setting: the same measure for `Cc1nc2ccc(Cl)cc2n1-c1cc(C#N)cc(Nc2ccc(C(F)(F)F)cc2)n1` [compound 345, 2-(6-chloro-2-methyl-1H-benzimidazol-1-yl)-6-{[4-(trifluoromethyl)phenyl]amino}pyridine-4-carbonitrile]: 10 to 100 nM; for `CCn1nc(C(F)(F)F)c(-c2cncc(Nc3ccc(OC(F)F)cc3)n2)c1C` [compound 330, N-[4-(difluoromethoxy)phenyl]-6-[1-ethyl-5-methyl-3-(trifluoromethyl)-1H-pyrazol-4-yl]pyrazin-2-amine]: 10 to 100 nM.
For the compound `CCc1nc2ncc(Cl)cc2n1-c1cncc(Nc2ccc(C(F)(F)F)cc2)n1` [compound 327, 6-(6-chloro-2-ethyl-1H-imidazo[4,5-b]pyridin-1-yl)-N-[4-(trifluoromethyl)phenyl]pyrazin-2-amine], the EC50 fell in the range of 1 to 10 nM.
Still for that read-out and setting: next, `COc1ccc2nc(C(F)(F)F)c(-c3cccc(Nc4ccc(C(F)(F)F)cc4)n3)n2c1` [compound 102, 6-[6-methoxy-2-(trifluoromethyl)imidazo[1,2-a]pyridin-3-yl]-N-[4-(trifluoromethyl)phenyl]pyridin-2-amine]: 10 to 100 nM; `COc1ccc2nc(C(F)(F)F)c(-c3cncc(Nc4ccccc4)n3)n2c1` [Cpd 678, 6-[6-methoxy-2-(trifluoromethyl)imidazo[1,2-a]pyridin-3-yl]-N-phenylpyrazin-2-amine]: 10 to 100 nM.
On the same count and under the same terms, next, `Cc1nc2cc(F)c(F)cc2n1-c1cccc(Nc2ccc(Cl)cc2)n1` [compound 615, N-(4-chlorophenyl)-6-(5,6-difluoro-2-methyl-1H-benzimidazol-1-yl)pyridin-2-amine]: 100 to 3000 nM.
The same measure, in the same setting: next, `Cc1nc2ccccc2n1-c1cncc(Nc2ccc(OC(C)C)cc2)n1` [compound 660, 6-(2-methyl-1H-benzimidazol-1-yl)-N-[4-(propan-2-yloxy)phenyl]pyrazin-2-amine]: 10 to 100 nM; `Cc1nc2ccccc2n1-c1cc(F)cc(Nc2ccc(C(F)(F)F)cc2[N+](=O)[O-])n1` [Cpd 493, 4-fluoro-6-(2-methyl-1H-benzimidazol-1-yl)-N-[2-nitro-4-(trifluoromethyl)phenyl]pyridin-2-amine]: 100 to 3000 nM.
With `Cc1nc2ccc(F)cc2n1-c1c[n+]([O-])cc(Nc2ccc(C(F)(F)F)cc2)n1` [compound 532, 6-(6-fluoro-2-methyl-1H-benzimidazol-1-yl)-N-[4-(trifluoromethyl)phenyl]pyrazin-2-amine 4-oxide], the EC50 lay in the range of 10 to 100 nM.
Same read-out and setting: the same measure for `Cc1nc2cc(F)c(F)cc2n1-c1cc(C#N)cc(Nc2ccc(Cl)cc2)n1` [compound 600, 2-[(4-chlorophenyl)amino]-6-(5,6-difluoro-2-methyl-1H-benzimidazol-1-yl)pyridine-4-carbonitrile]: 10 to 100 nM.
On the same count and under the same terms, next, `COC(=O)c1ccc(Nc2cncc(-c3c(C)nn4ccccc34)n2)cc1` [compound 572, methyl 4-{[6-(2-methylpyrazolo[1,5-a]pyridin-3-yl)pyrazin-2-yl]amino}benzoate]: 1 to 10 nM.

Still in this test, the particulars now being: read-out: ELISA EC50 value for Bmi-1 protein, Table 1, Bmi-1 sandwich ELISA.
As to `Cc1nc2c(F)cc(F)cn2c1-c1cncc(Nc2ccc(C(F)(F)F)cc2)n1` [compound 254, 6-(6,8-difluoro-2-methylimidazo[1,2-a]pyridin-3-yl)-N-[4-(trifluoromethyl)phenyl]pyrazin-2-amine], the EC50 was 1 to 10 nM.
The same measure, in the same setting: the same measure for `NC(=O)c1cc(Nc2ccc(C(F)(F)F)cc2)nc(-c2c(C(F)(F)F)nc3ccccn23)c1` [Cpd 189, 2-[2-(trifluoromethyl)imidazo[1,2-a]pyridin-3-yl]-6-{[4-(trifluoromethyl)phenyl]amino}pyridine-4-carboxamide]: 10 to 100 nM; for `COc1ccc(Nc2cc(C#N)cc(-c3c(C(F)(F)F)nc4ccccn34)n2)cc1` [Cpd 42, 2-[(4-methoxyphenyl)amino]-6-[2-(trifluoromethyl)imidazo[1,2-a]pyridin-3-yl]pyridine-4-carbonitrile]: 1 to 10 nM.
